Results on two substances are retold here after US20060088529A1, “Bispecific monoclonal antibodies to IL-12 and IL-18” (priority 2000, published 2006).

The test system of one assay is KG-1 cells. Kind of assay: IFN-γ production in KG-1 cells (ELISA). As to conditions: IL-18 50 nM, 16 to 24 hours. The assay is classed as cell-based, human. The method, then:
(§1) Two assays show the bioactivity of IL-12 and IL-18 alone. NK-92 is a natural killer line derived from a patient with malignant […] lymphoma. KG-1 is a myelomonocytic line derived from a patient with acute myelogenous leukemia. NK-92 and KG-1 cells constitutively express the IL-12 and IL-18 receptors, respectively.
(§2) KG-1 cells were cultured in serum-free medium for 24 hours, and then plated at 1×10^6 cells/ml in 96-well plates. As indicated, IL-18 (50 nM) or DEX (20 nM) were added. NK-92 cells were cultured in the presence of 10 U/ml IL-2, and plated at 2.5×10^4 viable (Trypan Blue negative) cells/ml in 96-well plates. As indicated, IL-12 (10 pM) or DEX (20 nM) were added. The KG-1 and NK-92 cells were incubated for 16 to 24 hours, and the amount of IFN-γ in the culture medium was determined using the Biosource Cytoscreen IFN-γ ELISA kit.
Background: In an ELISA, binding on a coated surface is turned into a signal by an enzyme label.

A further assay relates to NK-92 cells. Kind of assay: IFN-γ production in NK-92 cells (ELISA). It counts as cell-based, human. As to conditions: IL-12 10 pM, 16 to 24 hours. The protocol:
as §1, §2

For the substance Interleukin-18 [IL-18], the IFN-γ production result in the assay on KG-1 cells is “induce IFN-γ production”.
As for Interleukin-12 [IL-12], in the assay on NK-92 cells, the IFN-γ production result is listed as “induce IFN-γ production”.
